Data reported in US5545642A, “Derivatives of 1-(2-fluorocyclopropyl)-quinolonecarboxylic acid and 1-(2-fluorocyclopropyl)-naphthridonecarboxylic acid” (Bayer Aktiengesellschaft, priority 1993, dated 1996).
≈ marks a conversion by molar mass, not a printed value. Where two headings read alike, the source gives them in different places.

How the values were obtained:
Escherichia coli Neumann = assay: MIC, agar serial dilution (Iso-Sensitest agar), Escherichia coli Neumann; type: cell-based; conditions: 37° C., about 20 hours
Procedure: (§1) The minimum inhibitory concentrations (MIC) were determined on Iso-Sensitest agar (Oxoid) using a serial dilution method. For each substance to be tested, a series of agar plates was prepared, which plates contained diminishing concentrations of the active compound produced in each case by a doubling dilution. The agar plates were inoculated using a Multipoint Inoculator (Denley). For the inoculation, overnight cultures of the pathogens were used which had been diluted beforehand such that each inoculation point contained approximately 10^4 colony-forming particles. The inoculated agar plates were incubated at 37° C. and the growth of organisms recorded after about 20 hours. The MIC value (μg/ml) indicates the lowest concentration of active compound at which no growth was visible to the naked eye. […] Example 8 from European Patent Application 520 277): […]

Klebsiella sp. 8085 = assay: MIC, agar serial dilution (Iso-Sensitest agar), Klebsiella sp. 8085; type: cell-based; conditions: 37° C., about 20 hours
Procedure: as §1

Morganella morganii 932 = assay: MIC, agar serial dilution (Iso-Sensitest agar), Morganella morganii 932; type: cell-based; conditions: 37° C., about 20 hours
Procedure: as §1

Providencia sp. 12012 = assay: MIC, agar serial dilution (Iso-Sensitest agar), Providencia sp. 12012; type: cell-based; conditions: 37° C., about 20 hours
Procedure: as §1

Micrococcus luteus 9341 = assay: MIC, agar serial dilution (Iso-Sensitest agar), Micrococcus luteus 9341; type: cell-based; conditions: 37° C., about 20 hours
Procedure: as §1

[1] = system: Staphylococcus aureus ICB 25701; assay: MIC, agar serial dilution (Iso-Sensitest agar), Staphylococcus aureus ICB 25701; type: cell-based; conditions: about 20 hours
Procedure: as §1

[2] = system: Staphylococcus aureus 133; assay: MIC, agar serial dilution (Iso-Sensitest agar), Staphylococcus aureus 133; type: cell-based; conditions: 37° C., about 20 hours
Procedure: as §1

[3] = system: Enterococcus faecalis 27101; assay: MIC, agar serial dilution (Iso-Sensitest agar), Enterococcus faecalis 27101; type: cell-based; conditions: 37° C., about 20 hours
Procedure: as §1

[4] = LD50 following intravenous administration to CFl mice (tolerance); type: in vivo; conditions: mouse, in vivo, iv
Procedure: (§2) The LD50 values listed in this table were determined following intravenous administration of the substances to CFl mice. The ID50 is understood to be the concentration of a substance at which the DNA synthesis in Chinese hamster ovary cells (CHO-KI) is inhibited by 50%. This value is determined following incubation of the corresponding substances in descending dilution steps for defined periods. For this purpose, the DNA synthesis in CHO-KI cells is determined in comparison to controls using fluorophotometric methods.

in vitro = type: cell-based, Chinese hamster; conditions: hamster, cho-k1 cells
Procedure: as §2

CFl mice = assay: LD50 following intravenous administration to CFl mice (tolerance); type: in vivo
Procedure: as §2

[5] = system: Chinese hamster ovary cells (CHO-KI); assay: in vitro; type: cell-based; conditions: cho-k1 cells
Procedure: as §2

[6] = Escherichia coli, 20 h, read-out: MIC
[7] = Micrococcus luteus, 9341, 20 h, read-out: MIC
[8] = ICB25701, 37° C., read-out: MIC

SMILES	MIC (Escherichia coli Neumann; [6])	MIC (Klebsiella sp. 8085; read-out: MIC)	MIC (Morganella morganii 932; read-out: MIC)	MIC (Providencia sp. 12012; read-out: MIC)	MIC (Micrococcus luteus 9341; [7])	MIC [1, 8]	MIC ([2]; read-out: MIC)	MIC ([3]; read-out: MIC)	LD50 [4]	IC50 (in vitro)	LD50 (CFl mice)	MIC (Escherichia coli Neumann)	MIC (Klebsiella sp. 8085)	MIC (Morganella morganii 932)	MIC (Providencia sp. 12012)	MIC (Micrococcus luteus 9341)	MIC ([1]; 37° C.)	MIC [2]	MIC [3]	ID50 (concentration at which DNA synthesis is inhibited by 50%) [5]
CN1CCC2=C(C1)CN(c1c(F)cc3c(=O)c(C(=O)O)cn([C@@H]4C[C@@H]4F)c3c1F)C2 (relative stereo) [Example 1, 6,8-difluoro-1-(cis-2-fluorocyclopropyl)-1,4-dihydro-7-(5-methyl-2,3,4,5,6,7-hexahydro-1H-pyrrolo[3,4-c]pyridin-2-yl)-4-oxo-3-quinolinecarboxylic acid]	≤ 0.015 µg/mL	0.06 µg/mL (≈ 0.143 µM)	0.03 µg/mL (≈ 0.0715 µM)	0.06 µg/mL (≈ 0.143 µM)	0.25 µg/mL (≈ 0.596 µM)	0.5 µg/mL (≈ 1.19 µM)	0.06 µg/mL (≈ 0.143 µM)	0.06 µg/mL (≈ 0.143 µM)	150 mg/kg	35 µg/mL (≈ 83.5 µM)										
CN1CCC2=C(C1)CN(c1c(F)cc3c(=O)c(C(=O)O)cn([C@@H]4C[C@@H]4F)c3c1Cl)C2 (relative stereo) [Example 4, 8-chloro-6-fluoro-1-(cis-2-fluorocyclopropyl)-1,4-dihydro-7-(5-methyl-2,3,4,5,6,7-hexahydro-1H-pyrrolo[3,4-c]-pyridin-2-yl)-4-oxo-3-quinolinecarboxylic acid]	≤ 0.015 µg/mL	0.06 µg/mL (≈ 0.138 µM)	0.06 µg/mL (≈ 0.138 µM)	0.06 µg/mL (≈ 0.138 µM)	0.125 µg/mL (≈ 0.287 µM)	0.25 µg/mL (≈ 0.574 µM)	≤ 0.015 µg/mL	0.06 µg/mL (≈ 0.138 µM)												
CN1CCC2=C(C1)CN(c1c(F)cc3c(=O)c(C(=O)O)cn([C@@H]4C[C@@H]4F)c3c1F)C2 (single isomer, unassigned) [Example 2, (-)-6,8-difluoro-1-(cis-2-fluorocyclopropyl)-1,4-dihydro-7-(5-methyl-2,3,4,5,6,7-hexahydro-1H-pyrrolo[3,4-c]pyridin-2-yl)-4-oxo-3-quinolinecarboxylicacid]	0.03 µg/mL (≈ 0.0715 µM)	0.06 µg/mL (≈ 0.143 µM)	0.06 µg/mL (≈ 0.143 µM)	0.06 µg/mL (≈ 0.143 µM)	0.25 µg/mL (≈ 0.596 µM)	0.5 µg/mL (≈ 1.19 µM)	0.06 µg/mL (≈ 0.143 µM)	0.06 µg/mL (≈ 0.143 µM)		40 µg/mL (≈ 95.4 µM)	200 mg/kg									
CN1CCC2=C(C1)CN(c1c(F)cc3c(=O)c(C(=O)O)cn([C@@H]4C[C@@H]4F)c3c1F)C2 (single isomer, unassigned) [Example 3, (+)-6,8-difluoro-1-(cis-2-fluorocyclopropyl)-1,4-dihydro-7-(5-methyl-2,3,4,5,6,7-hexahydro-1H-pyrrolo[3,4-c]pyridin-2-yl)-4-oxo-3-quinolinecarboxylicacid]											50 mg/kg	≤ 0.015 µg/mL	0.06 µg/mL (≈ 0.143 µM)	0.06 µg/mL (≈ 0.143 µM)	0.06 µg/mL (≈ 0.143 µM)	0.125 µg/mL (≈ 0.298 µM)	0.5 µg/mL (≈ 1.19 µM)	0.06 µg/mL (≈ 0.143 µM)	0.06 µg/mL (≈ 0.143 µM)	40 µg/mL (≈ 95.4 µM)
CN1CCC2=C(C1)CN(c1c(F)cc3c(=O)c(C(=O)O)cn(C4CC4)c3c1F)C2.Cl [Ref. 1, 1-cyclopropyl-6,8-difluoro-1,4-dihydro-7-(5-methyl-2,3,4,5,6,7-hexahydro-1H-pyrrolo[3,4-c]pyridin-2-yl)-4-oxo-3-quinolinecarboxylic acid hydrochloride, reference compound]	≤ 0.015 µg/mL	0.06 µg/mL	0.03 µg/mL	0.125 µg/mL	0.5 µg/mL	1 µg/mL	0.6 µg/mL	0.125 µg/mL	50 mg/kg	1 µg/mL										
CN1CCC2=C(C1)CN(c1c(F)cc3c(=O)c(C(=O)O)cn(C4CC4)c3c1Cl)C2 [Ref. 2, 8-chloro-1-cyclopropyl-6-fluoro-1,4-dihydro-7-(5-methyl-2,3,4,5,6,7-hexahydro-1H-pyrrolo[3,4-c]pyridin-2-yl)-4-oxo-3-quino-1-linecarboxylic acid, reference compound]	0.03 µg/mL (≈ 0.0718 µM)	0.06 µg/mL (≈ 0.144 µM)	0.06 µg/mL (≈ 0.144 µM)	0.125 µg/mL (≈ 0.299 µM)	0.25 µg/mL (≈ 0.598 µM)	0.5 µg/mL (≈ 1.2 µM)	0.03 µg/mL (≈ 0.0718 µM)	0.06 µg/mL (≈ 0.144 µM)	50 mg/kg	16 µg/mL (≈ 38.3 µM)										
